Source: US9546383B2, “Human pluripotent embryonic stem cells produced by nuclear transfer using a somatic cell nucleus treated with HVJ-E extract and an oocyte from a donor cycle that produced 15 or fewer oocytes” (priority 2013, dated 2017)
Where a SMILES comes first, the peptide text is derived from it. [ ]: non-standard residue; d: D form. d(hArg(Et2)) = CCN=C(NCC)NCCCC[C@@H](N)C(=O)O; hArg(Et2) = CCN=C(NCC)NCCCC[C@H](N)C(=O)O; dPhe(4-Cl) = N[C@H](Cc1ccc(Cl)cc1)C(=O)O; d2Nal = N[C@H](Cc1ccc2ccccc2c1)C(=O)O; d3Pal = N[C@H](Cc1cccnc1)C(=O)O

How the values were obtained:
[1] = test system: human SCNT embryos; assay: Human SCNT embryo development and NT-ESC derivation by GnRH agonist or antagonist treatment of oocyte donor; assay type: cell-based; conditions: oocytes from treated donors
Experimental: A retrospective analysis of ovarian stimulation procedures was conducted in order to determine the effect of the number of oocytes retrieved per cycle on human SCNT embryo development and NT-ESC derivation outcomes. Oocyte donation cycles were divided into three groups based on the range of collected mature MII oocytes—10 or fewer oocytes per cycle (5 donors), between 11 to 15 oocytes (2 donors) and more than 16 oocytes per cycle (3 donors). While survival after enucleation, fusion, pronuclear formation and cleavage of SCNT embryos were similar between these groups, more embryos derived from the donors producing ≧16 MII oocytes/cycle arrested after the 8-cell stage than the other two groups (FIG. 5A). In addition, the quality of SCNT blastocysts also negatively correlated with the number of collected oocytes per cycle. […] The peak estradiol (E2) level measured in blood of egg donors prior to hCG priming positively correlated with the subsequent yield of oocytes (FIG. 10). […]
Optimal stimulation protocols giving the best chance of producing oocytes capable of producing NT-ESCs using SCNT were sought. The impact of GnRH agonists and antagonists used to suppress the pituitary function of egg donors were first assessed. Prior to stimulations, the anti-mullerian hormone (AMH) level and antral follicle counts (AFC) were measured for each individual egg donor (Table S3). […]

[2] = Ovarian stimulation of egg donors under different pituitary suppression regimens; assay type: in vivo, human; conditions: antagonist 6 cycles, agonist 4 cycles
Experimental: Optimal stimulation protocols giving the best chance of producing oocytes capable of producing NT-ESCs using SCNT were sought. The impact of GnRH agonists and antagonists used to suppress the pituitary function of egg donors were first assessed. Prior to stimulations, the anti-mullerian hormone (AMH) level and antral follicle counts (AFC) were measured for each individual egg donor (Table S3). Donors with higher AMH and AFC profiles are associated with high ovarian reserve and received the GnRH agonist Lupron® (4 cycles) while the remaining donors were provided with the GnRH antagonist (ganirelix, 6 cycles) (Table 3).
Ovarian stimulation protocols followed established clinical IVF guidelines as we described previously (Tachibana et al, 2013 supra). Briefly, a combination of recombinant follicle stimulating hormone (rFSH) and human menopausal gonadotropins (hMG) and either GnRH agonist (Lupron®, Tap Pharmaceutical Products, Lake Forest, Ill.) or antagonist (Ganirelix®, Merck & Co, Whitehouse Station, N.J.) were given. Human chorionic gonadotropin (hCG) was prescribed to trigger oocyte maturation. Self administration of injectable rFSH (sc, Follistim®, Merck & Co, Whitehouse Station, N.J.) commenced on cycle day 2 or 3 and continued for approximately 8-12 days. The starting gonadotropin dose was 75-125 IU/day and 1-2 A hMG (sc, Menopur®, Ferring Pharmaceuticals, Inc. Parsippany, N.J.); the dose was adjusted per individual response using an established step-down regimen until the day of hCG injection. Ovarian response and follicular growth were monitored by transvaginal ultrasound and measurements of serum estradiol levels. When two or more follicles reached >18 mm in diameter, subjects received hCG ([…], sc, Ovidrel®, EMDSerono, Rockland, Mass.) to trigger maturation. Thirty-six hours following hCG injection, subjects underwent oocyte retrieval via transvaginal follicular aspirations.

[3] = test system: human SCNT embryos; assay: Human SCNT with caffeine during enucleation and fusion: spindle formation and blastocyst development; assay type: cell-based
Experimental: As expected, somatic cell nuclei introduced into oocyte cytoplasts under these conditions efficiently formed spindle-like structures detectable under birefringence microscope (83.3%, 10/12) (FIG. 2D). […] Human SCNT blastocysts in this group contained visible, prominent ICMs similar to that observed for IVF embryos (FIG. 2E).
Enucleation of MII spindles were performed as described previously (Tachibana et al., 2013 supra). […] The droplet was covered with tissue culture oil and oocytes maintained at 37° C. for 10-15 min before spindle removal. The dish was then mounted on the stage of an inverted microscope (Olympus IX71®) equipped with a stage warmer (http://www.tokaihit.com) Narishige micromanipulators, Oosight™ Imaging System (www.cri-inc.com) and a laser objective (www.hamiltonthorne.com). An oocyte was positioned by a holding pipette so that the spindle was situated between the 2 o'clock and 4 o'clock position. The zona pellucida next to the spindle was drilled with a laser pulse and an enucleation pipette was inserted through the opening. A small amount of cytoplasm surrounded by plasma membrane and contacting spindle was aspirated into the pipette. Next, a disaggregated fibroblast was aspirated into a micropipette and briefly transferred to the drop containing HVJ-E extract (Ishihara Sangyo Kaisha Ltd). […]

[4] = test system: Monkey SCNT embryo; assay: Monkey SCNT embryo development after treatment with trichostatin A (TSA); assay type: cell-based, rhesus macaque
Experimental: (§1) However, the quality of such blastocysts and their potential to give rise to stable ESCs remained unknown until this current disclosure. A total of 16 monkey SCNT blastocysts produced with TSA treatment were plated on mitotically inactivated mouse embryonic fibroblast (mEF) feeders. None of these blastocysts produced NT-ESC lines (Table 1). Lower TSA concentrations as well as shorter exposure times to TSA had no effect on monkey SCNT blastocyst development and ESC isolation.
(§2) Oocyte collections, SCNT, embryo culture and NT-ESC isolation procedures were performed as previously described (Byrne et al, 2007 supra; Sparman et al., 2009, supra; Sparman et al, 2010 supra).

[5] = test system: monkey SCNT blastocysts; assay: Monkey NT-ESC isolation after treatment with TSA; assay type: cell-based, rhesus macaque
Experimental: as §1, §2

[6] = test system: Monkey SCNT embryo; conditions: 37.5 nM TSA; from 4% without; cited from earlier work
[7] = TSA 10 nM, 12 h, 23 plated blastocysts

For `CCNC(=O)[C@@H]1CCCN1C(=O)[C@H](CCCNC(=N)N)NC(=O)[C@H](CC(C)C)NC(=O)[C@@H](CC(C)C)NC(=O)[C@H](Cc1ccc(O)cc1)NC(=O)[C@H](CO)NC(=O)[C@H](Cc1c[nH]c2ccccc12)NC(=O)[C@H](Cc1c[nH]cn1)NC(=O)[C@@H]1CCC(=O)N1` [GnRH agonist], the “SCNT embryo development beyond the 8-cell stage” value [1] was “impaired” and the “Peak E2” value [2] was 2709 ± 1597.3.

In the case of `Cn1c(=O)c2c(ncn2C)n(C)c1=O` [caffeine], the “blastocyst development of caffeine treated embryos” value ([3]; 1.25 mM caffeine during enucleation and fusion) was 23.5% and the “somatic cell nuclei forming spindle-like structures” value ([3]; 1.25 mM caffeine during enucleation and somatic cell fusion, 10/12) was 83.3%.

For `CC(/C=C/C(=O)NO)=C\[C@@H](C)C(=O)c1ccc(N(C)C)cc1` [TSA, trichostatin A], the “8-cell (%)” value ([4]; TSA 5 nM for 12 h, N 212) was “(92.8) %”, the “8-cell, number” value ([4]; TSA 5 nM for 12 h, N 212) was 192 and the “Blastocysts (%)” value ([4]; TSA 5 nM for 12 h, N 212) was 14.5%. The “Blastocysts, number” value ([4]; TSA 5 nM for 12 h, N 212) was 30, the “CM (%)” value ([4]; TSA 5 nM for 12 h, N 212) was “(26.0) %” and the “CM, number” value ([4]; TSA 5 nM for 12 h, N 212) was 58. For the same molecule, the “PN (%)” value ([4]; TSA 5 nM for 12 h, N 212) was “(98.6) %”, the “PN, number” value ([4]; TSA 5 nM for 12 h, N 212) was 207 and the “fused (%)” value ([4]; TSA 5 nM for 12 h, N 212) was “(99.1) %”. For the same molecule, the “fused, number” value ([4]; TSA 5 nM for 12 h, N 212) was 210, the “8-cell (%)” value ([4]; TSA 10 nM for 12 h, N 571) was “(93.7) %” and the “8-cell, number” value ([4]; TSA 10 nM for 12 h, N 571) was 494. For the same molecule, the “Blastocysts (%)” value ([4]; TSA 10 nM for 12 h, N 571) was 18.8%, the “Blastocysts, number” value ([4]; TSA 10 nM for 12 h, N 571) was 99 and the “CM (%)” value ([4]; TSA 10 nM for 12 h, N 571) was “(27.9) %”. The “CM, number” value ([4]; TSA 10 nM for 12 h, N 571) was 147, the “PN (%)” value ([4]; TSA 10 nM for 12 h, N 571) was “(94.4) %” and the “PN, number” value ([4]; TSA 10 nM for 12 h, N 571) was 535. The “fused (%)” value ([4]; TSA 10 nM for 12 h, N 571) was “(99.3) %”, the “fused, number” value ([4]; TSA 10 nM for 12 h, N 571) was 567 and the “8-cell (%)” value ([4]; TSA 10 nM for 24 h, N 108) was “(97.1) %”. The “8-cell, number” value ([4]; TSA 10 nM for 24 h, N 108) was 100, the “Blastocysts (%)” value ([4]; TSA 10 nM for 24 h, N 108) was 24.3% and the “Blastocysts, number” value ([4]; TSA 10 nM for 24 h, N 108) was 25. The “CM (%)” value ([4]; TSA 10 nM for 24 h, N 108) was “(32.0) %”, the “CM, number” value ([4]; TSA 10 nM for 24 h, N 108) was 33 and the “PN (%)” value ([4]; TSA 10 nM for 24 h, N 108) was “(100) %”. For the same molecule, the “PN, number” value ([4]; TSA 10 nM for 24 h, N 108) was 104, the “fused (%)” value ([4]; TSA 10 nM for 24 h, N 108) was “(95.4) %” and the “fused, number” value ([4]; TSA 10 nM for 24 h, N 108) was 104. For the same molecule, the “8-cell (%)” value ([4]; TSA 37.5 nM for 24 h, N 511) was “(90.3) %”, the “8-cell, number” value ([4]; TSA 37.5 nM for 24 h, N 511) was 418 and the “Blastocysts (%)” value ([4]; TSA 37.5 nM for 24 h, N 511) was 18.4%. The “Blastocysts, number” value ([4]; TSA 37.5 nM for 24 h, N 511) was 85, the “CM (%)” value ([4]; TSA 37.5 nM for 24 h, N 511) was “(23.1) %” and the “CM, number” value ([4]; TSA 37.5 nM for 24 h, N 511) was 107. The “PN (%)” value ([4]; TSA 37.5 nM for 24 h, N 511) was “(99.0) %”, the “PN, number” value ([4]; TSA 37.5 nM for 24 h, N 511) was 498 and the “fused (%)” value ([4]; TSA 37.5 nM for 24 h, N 511) was “(98.4) %”. For the same molecule, the “fused, number” value ([4]; TSA 37.5 nM for 24 h, N 511) was 503, the “effect on blastocyst rates” value ([4]; reducing TSA concentration to 10 nM or shortening exposure from 24 h to 12 h) was “did not affect blastocyst rates” and the “# NT-ESCs” value ([5]; TSA 5 nM, 12 h, 7 plated blastocysts) was 0. For the same molecule, the “# NT-ESCs” value [5, 7] was 3, the “# NT-ESCs (%)” value [5, 7] was 13% and the “# NT-ESCs” value ([5]; TSA 10 nM, 24 h, 4 plated blastocysts) was 0. The “development of monkey SCNT embryos to blastocysts” value [6] was 18%.

With `CCN=C(NCC)NCCCC[C@H](NC(=O)[C@H](CC(C)C)NC(=O)[C@@H](CCCCNC(=NCC)NCC)NC(=O)[C@H](Cc1ccc(O)cc1)NC(=O)[C@H](CO)NC(=O)[C@@H](Cc1cccnc1)NC(=O)[C@@H](Cc1ccc(Cl)cc1)NC(=O)[C@@H](Cc1ccc2ccccc2c1)NC(C)=O)C(=O)N1CCC[C@H]1C(=O)N[C@H](C)C(N)=O` [GnRH antagonist, ganirelix] (Ac-[d2Nal][dPhe(4-Cl)][d3Pal]SY[d(hArg(Et2))]L[hArg(Et2)]P[dA]-NH2) the NT-ESC lines derived [1] was “six”, the “# oocytes (MII oocytes collected per cycle, mean±SD)” value [2] was 11.7±5.6 and the “Peak E2” value [2] was 2568.2 ± 806.1.
